Reference: the NIST ThermoML archive (doi:10.1016/j.tca.2018.01.023)
Values joined by “and” are separate entries in the source; they are usually repeats but may differ in a detail not shown here. Equal entries are not always repeated.

Experiment: molar heat capacity at constant pressure
Details: 101.33 kPa, Crystal, Small sample (50 mg) DSC

[Ca+2].[O]=[Mo](=[O])([O-])[O-] [calcium molybdate(VI)]
Details | molar heat capacity at constant pressure
255.5 K | 107.3 J/K/mol
255.9 K | 107.4 J/K/mol
256.9 K | 107.5 J/K/mol
257.9 K | 107.6 J/K/mol
258.9 K | 107.7 J/K/mol
259.9 K | 107.8 J/K/mol
260.9 K | 107.8 J/K/mol
261.9 K | 107.9 J/K/mol
262.9 K | 108 J/K/mol
263.9 K | 108.2 J/K/mol
264.9 K | 108.3 J/K/mol
265.9 K | 108.4 J/K/mol
266.9 K | 108.6 J/K/mol
267.9 K | 108.8 J/K/mol
268.9 K | 109 J/K/mol
269.9 K | 109.2 J/K/mol
270.9 K | 109.4 J/K/mol
272 K | 109.6 J/K/mol
273 K | 109.8 J/K/mol
274 K | 110 J/K/mol
275 K | 110.3 J/K/mol
276 K | 110.5 J/K/mol
277 K | 110.7 J/K/mol
278 K | 111 J/K/mol
279 K | 111.2 J/K/mol
280 K | 111.5 J/K/mol
281 K | 111.6 J/K/mol
282 K | 111.8 J/K/mol
283 K | 112 J/K/mol
284 K | 112.2 J/K/mol
285 K | 112.3 J/K/mol
286 K | 112.5 J/K/mol
287 K | 112.7 J/K/mol
288 K | 112.9 J/K/mol
289 K | 113 J/K/mol
290.1 K | 113.2 J/K/mol
291.1 K | 113.4 J/K/mol
292.1 K | 113.6 J/K/mol
293.1 K | 113.8 J/K/mol
294.1 K | 114 J/K/mol
295.1 K | 114.1 J/K/mol
296.1 K | 114.3 J/K/mol
297.1 K | 114.5 J/K/mol
298.1 K | 114.6 J/K/mol
298.15 K | 114.2 J/K/mol
299.1 K | 114.8 J/K/mol
300.1 K | 115 J/K/mol
301.1 K | 115.1 J/K/mol
302.1 K | 115.3 J/K/mol
303.1 K | 115.4 J/K/mol
304.1 K | 115.6 J/K/mol
305.1 K | 115.7 J/K/mol
306.1 K | 115.9 J/K/mol
307.1 K | 116.1 J/K/mol
308.2 K | 116.2 J/K/mol
309.2 K | 116.4 J/K/mol
310 K | 116.5 J/K/mol
310.2 K | 116.5 J/K/mol
311.2 K | 116.7 J/K/mol
312.2 K | 116.8 J/K/mol
313.2 K | 116.9 J/K/mol
314.2 K | 117.1 J/K/mol
315 K | 117.3 J/K/mol
315.2 K | 117.3 J/K/mol
316.2 K | 117.4 J/K/mol
317.2 K | 117.6 J/K/mol
317.4 K | 117.7 J/K/mol
318.2 K | 117.8 J/K/mol
318.4 K | 118 J/K/mol
319.2 K | 117.9 J/K/mol
319.4 K | 118.2 J/K/mol
320 K | 118.1 J/K/mol
320.2 K | 118.1 J/K/mol
320.4 K | 118.4 J/K/mol
321.2 K | 118.3 J/K/mol
321.4 K | 118.5 J/K/mol
322.2 K | 118.5 J/K/mol
322.4 K | 118.6 J/K/mol
323.2 K | 118.6 J/K/mol
323.4 K | 118.8 J/K/mol
324.2 K | 118.7 J/K/mol
324.4 K | 118.9 J/K/mol
325 K | 118.8 J/K/mol
325.2 K | 118.8 J/K/mol
325.4 K | 119 J/K/mol
326.2 K | 119 J/K/mol
326.4 K | 119.1 J/K/mol
327.2 K | 119.1 J/K/mol
327.4 K | 119.2 J/K/mol
328.2 K | 119.2 J/K/mol
328.4 K | 119.4 J/K/mol
329.2 K | 119.3 J/K/mol
329.4 K | 119.5 J/K/mol
330 K | 119.5 J/K/mol
330.2 K | 119.5 J/K/mol
330.4 K | 119.6 J/K/mol
331.3 K | 119.7 J/K/mol
331.4 K | 119.7 J/K/mol
332.3 K | 119.9 J/K/mol
332.4 K | 119.8 J/K/mol
333.3 K | 120 J/K/mol
333.4 K | 120 J/K/mol
334.3 K | 120.1 J/K/mol
334.4 K | 120.1 J/K/mol
335 K | 120.2 J/K/mol
335.3 K | 120.2 J/K/mol
335.4 K | 120.3 J/K/mol
336.3 K | 120.3 J/K/mol
336.4 K | 120.4 J/K/mol
337.3 K | 120.5 J/K/mol
337.4 K | 120.6 J/K/mol
338.3 K | 120.6 J/K/mol
338.4 K | 120.7 J/K/mol
339.3 K | 120.7 J/K/mol
339.4 K | 120.9 J/K/mol
340 K | 120.9 J/K/mol
340.3 K | 120.8 J/K/mol
340.4 K | 121 J/K/mol
341.3 K | 121 J/K/mol
341.4 K | 121.1 J/K/mol
342.3 K | 121.2 J/K/mol
342.4 K | 121.2 J/K/mol
343.3 K | 121.4 J/K/mol
343.4 K | 121.4 J/K/mol
344.3 K | 121.5 J/K/mol
344.4 K | 121.5 J/K/mol
345 K | 121.5 J/K/mol
345.3 K | 121.7 J/K/mol
345.4 K | 121.6 J/K/mol
346.3 K | 121.8 J/K/mol
346.4 K | 121.8 J/K/mol
347.3 K | 121.9 J/K/mol
347.4 K | 122 J/K/mol
348.3 K | 122 J/K/mol
348.4 K | 122.3 J/K/mol
349.3 K | 122.1 J/K/mol
349.4 K | 122.6 J/K/mol
350 K | 122.2 J/K/mol
350.3 K | 122.2 J/K/mol
350.4 K | 122.6 J/K/mol
351.3 K | 122.3 J/K/mol
351.4 K | 122.6 J/K/mol
352.3 K | 122.4 J/K/mol
352.4 K | 122.5 J/K/mol
353.3 K | 122.5 J/K/mol
353.4 K | 122.5 J/K/mol
354.3 K | 122.7 J/K/mol
354.4 K | 122.6 J/K/mol
355 K | 122.8 J/K/mol
355.3 K | 122.8 J/K/mol
355.4 K | 122.7 J/K/mol
356.3 K | 122.9 J/K/mol
356.4 K | 123 J/K/mol
357.3 K | 123.1 J/K/mol
357.4 K | 123.2 J/K/mol
358.3 K | 123.3 J/K/mol
358.4 K | 123.4 J/K/mol
359.3 K | 123.4 J/K/mol
359.4 K | 123.5 J/K/mol
360 K | 123.4 J/K/mol
360.3 K | 123.6 J/K/mol
360.4 K | 123.6 J/K/mol
361.4 K | 123.7 J/K/mol
362.4 K | 123.8 J/K/mol
363.4 K | 123.9 J/K/mol
364.4 K | 124.1 J/K/mol and 124 J/K/mol
365 K | 124 J/K/mol
365.4 K | 124.2 J/K/mol and 124.1 J/K/mol
366.4 K | 124.3 J/K/mol and 124.2 J/K/mol
367.4 K | 124.4 J/K/mol and 124.3 J/K/mol
368.4 K | 124.5 J/K/mol and 124.4 J/K/mol
369.4 K | 124.6 J/K/mol
370 K | 124.6 J/K/mol
370.4 K | 124.7 J/K/mol
371.4 K | 124.8 J/K/mol and 124.9 J/K/mol
372.4 K | 125 J/K/mol
373.4 K | 125.1 J/K/mol
374.4 K | 125.2 J/K/mol
375 K | 125.2 J/K/mol
375.4 K | 125.3 J/K/mol
376.4 K | 125.4 J/K/mol
377.4 K | 125.6 J/K/mol and 125.5 J/K/mol
378.4 K | 125.7 J/K/mol and 125.5 J/K/mol
379.4 K | 125.9 J/K/mol and 125.6 J/K/mol
380 K | 125.8 J/K/mol
380.4 K | 126 J/K/mol and 125.7 J/K/mol
381.4 K | 126.1 J/K/mol and 125.8 J/K/mol
382.4 K | 126.2 J/K/mol and 125.9 J/K/mol
383.4 K | 126.3 J/K/mol and 126 J/K/mol
384.4 K | 126.3 J/K/mol and 126.2 J/K/mol
385 K | 126.3 J/K/mol
385.4 K | 126.4 J/K/mol and 126.3 J/K/mol
386.4 K | 126.4 J/K/mol
387.4 K | 126.5 J/K/mol
388.4 K | 126.6 J/K/mol and 126.7 J/K/mol
389.4 K | 126.8 J/K/mol
390 K | 126.8 J/K/mol
390.4 K | 126.9 J/K/mol and 126.8 J/K/mol
391.4 K | 127.1 J/K/mol
391.5 K | 126.9 J/K/mol
392.4 K | 127.2 J/K/mol
392.5 K | 127 J/K/mol
393.4 K | 127.3 J/K/mol
393.5 K | 127.1 J/K/mol
394.4 K | 127.4 J/K/mol
394.5 K | 127.2 J/K/mol
395 K | 127.4 J/K/mol
395.4 K | 127.5 J/K/mol
